The text below walks through data of patent US20040072770A1, “Methods for specifically inhibiting histone deacetylase-7 and 8” (priority 2002, published 2004).

Common to all, as to format: in vivo
The subject of assay [1] is lung carcinoma cells A549 tumors. Kind of assay: Tumor growth in a mouse model, A549. Particulars: BALB/c nude mice, vs vehicle-treated. How it is done: (§1) Female BALB/c nude mice are obtained from Charles River Laboratories (Charles River, N.Y.) and used at age 8-10 weeks. Human tumor cells (2×10^6, colon carcinoma cells HCT116 or SW48, lung carcinoma cells A549, pancreatic carcinoma Panc-1, ovarian carcinoma cells ES2, or prostate carcinoma cells Du145) are injected subcutaneously in the animal's flank and allowed to form solid tumors. Tumor fragments are serially passaged a minimum of three times, then approximately 30 mg tumor fragments are implanted subcutaneously through a small surgical incision under general anaesthesia. Small molecule inhibitor administration by intraperotineal or oral administration was initiated when the tumors reached a volume of 100 mm^3. For intraperotineal administration, small molecule inhibitors of HDAC-7, HDAC-8 or both, or in combination with small molecule inhibitors of HDAC-1 (20-60 mg/kg body weight/day) are dissolved in 100% DMSO and administered daily by injection. For oral administration, small molecule inhibitors of HDAC (60 mg/kg body weight) are dissolved in saline acidified with 0.2 N HCl. Tumor volumes are monitored twice weekly up to 20 days. Each experimental group contains at least 6-8 animals. Percentage inhibition is calculated using volume of tumor from vehicle-treated mice as controls. […]

The subject of assay [2] is pancreatic carcinoma Panc-1 tumors. Kind of assay: Tumor growth in a mouse model, Panc-1. To be noted: BALB/c nude mice, vs vehicle-treated. How it is done: as §1
Assay [3] relates to colon carcinoma cells SW48 tumors. Kind of assay: Tumor growth in a mouse model, SW48. To be noted: (6,0,O): oral; BALB/c nude mice; vs vehicle-treated. On the procedure: as §1
Assay [4] deals with prostate carcinoma cells Du145 tumors. Kind of assay: Tumor growth in a mouse model, Du145. Particulars: (60,I): 60 mg/kg body weight/day, intraperitoneal; BALB/c nude mice; vs vehicle-treated. On the procedure:
as §1

Molecules are shown by their SMILES.

Turning to `COc1ccc(-c2ccnc(NCc3ccc(C(=O)Nc4ccccc4N)cc3)n2)cc1OC` [Compound 21, N-(2-Amino-phenyl)-4-{[4-(3,4-dimethoxy-phenyl)-pyrimidin-2-ylamino]-methyl}-benzamide], the “% of Inhibition of Tumor Growth in Vivo A 549” value in assay [1] ((30,I): 30 mg/kg body weight/day, intraperitoneal) was >50(30,I) %. For the same compound, the “% of Inhibition of Tumor Growth in Vivo PANC-1” value in assay [2] ((3,0,I): intraperitoneal) is listed as >50(3,0,I) %.

For the compound `COc1ccc(NCc2ccc(C(=O)Nc3ccccc3N)cc2)cc1OC` [Compound 17, N-(2-Aminophenyl)-4-[(3,4-dimethoxyphenylamino)-methyl]-benzamide], in assay [3], the “% of Inhibition of Tumor Growth in Vivo SW 48” value is recorded as 68(6,0,O) %. The “% of Inhibition of Tumor Growth in Vivo A 549” value in assay [1] ((5,0,O): oral) is recorded as 67(5,0,O) %. Also, the “% of Inhibition of Tumor Growth in Vivo PANC-1” value in assay [2] ((60,O): 60 mg/kg body weight, oral) was 78(60,O) %. In addition, in assay [4], the “% of Inhibition of Tumor Growth in Vivo DU 145” value was >50(60,I) %.
